# Biological target: T1, hCRTH2 (Homo sapiens, UniProt Q9Y5Y4)
# T1 sequence (Q9Y5Y4 1-395): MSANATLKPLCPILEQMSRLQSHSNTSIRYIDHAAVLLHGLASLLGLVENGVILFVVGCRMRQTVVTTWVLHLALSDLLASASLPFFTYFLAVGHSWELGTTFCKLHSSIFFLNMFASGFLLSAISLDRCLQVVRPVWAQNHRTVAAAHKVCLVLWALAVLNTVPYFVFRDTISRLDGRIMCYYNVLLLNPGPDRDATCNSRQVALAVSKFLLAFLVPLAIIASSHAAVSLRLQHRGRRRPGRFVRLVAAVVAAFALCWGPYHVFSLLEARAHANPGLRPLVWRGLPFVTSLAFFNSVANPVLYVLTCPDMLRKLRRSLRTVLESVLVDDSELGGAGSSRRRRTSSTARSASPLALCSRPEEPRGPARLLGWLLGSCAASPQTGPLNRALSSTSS
# Parameters: expressed in transfected cells; host or cells: HEK (human embryonic kidney) cells expressing hCRTH2
# Conditions: Radioligand Binding Assay B; 0.7 nM [3H]PGD2, HEK-hCRTH2 membranes
# Protocol: The filters were then washed with 4 mL of the same buffer and residual radioligand bound to the filter was determined by liquid scintillation counting following equilibration in 25 μl Ultima Gold F™ (Unifilter) (Packard).
row,Compound,Ki [nM]
1,"COC(=O)CCC(=O)N(C1CC1)C1c2ccccc2N(C(=O)c2ccc(Cl)cc2)C2CCCC21 (racemic) [14P, methyl 4-[{cis,cis-4-[(4-chlorophenyl)carbonyl]-2,3,3a,4,9,9a-hexahydro-1H-cyclopenta[b]quinolin-9-yl}(cyclopropyl)amino]-4-oxobutanoate]",414
2,"CCN(C(=O)CCC(=O)O)C1c2ccccc2N(C(=O)c2cccnc2)C2CCCC12 (racemic) [13E, 4-{ethyl[cis,cis-4-(pyridin-3-ylcarbonyl)-2,3,3a,4,9,9a-hexahydro-1H-cyclopenta[b]quinolin-9-yl]amino}-4-oxobutanoic acid]",123
3,"O=C(O)CCC(=O)N(C1CC1)C1c2ccccc2N(C(=O)OCc2ccc(Cl)cc2)C2CCCC21 (racemic) [21A, 4-{[cis, cis-4-{[(4-chlorobenzyl)oxy]carbonyl}-2,3,3a,4,9,9a-hexahydro-1H-cyclopenta[b]quinolin-9-yl](cyclopropyl)amino}-4-oxobutanoic acid]",45.7
4,"O=C(O)CCC(=O)N(C1CC1)[C@@H]1c2ccc(F)cc2N(C(=O)OCc2ccccc2)[C@@H]2CCC[C@@H]21 (racemic) [compound 16, 4-[{cis,cis-4-[(Benzyloxy)carbonyl]-6-fluoro-2,3,3a,4,9,9a-hexahydro-1H-cyclopenta[b]quinolin-9-yl}(cyclopropyl)amino]-4-oxobutanoic acid]",2.7

# Same assay, conditions: Radioligand Binding Assay B; Table B, rated A-D
row,Compound,Ki [nM]
1,"O=C(O)CCC(=O)N(C1CC1)C1c2ccccc2N(C(=O)c2ccc(Br)cc2)C2CCCC21 (racemic) [14F, 4-[{cis,cis-4-[(4-bromophenyl)carbonyl]-2,3,3a,4,9,9a-hexahydro-1H-cyclopenta[b]quinolin-9-yl}(cyclopropyl)amino]-4-oxobutanoic acid]",5.1 to 20
2,CN(C(=O)CCCC(=O)O)C1c2ccccc2N(C(=O)c2ccccc2)C2CCCC12 (racemic) [17N],201 to 7500
3,"CCN(C(=O)CCC(=O)O)[C@@H]1c2ccccc2N(C(=O)OCc2ccccc2)[C@@H]2CCC[C@H]12 (racemic) [compound 13, 4-[{cis,cis-4-[(Benzyloxy)carbonyl]-2,3,3a,4,9,9a-hexahydro-1H-cyclopenta[b]quinolin-9-yl}(ethyl)amino]-4-oxobutanoic acid]",5.1 to 20
4,"Cn1c(C(=O)N2c3ccccc3C(N(C(=O)CCC(=O)O)C3CC3)C3CCCC32)cc2ccccc21 (racemic) [14D, 4-(cyclopropyl{cis,cis-4-[(1-methyl-1H-indol-2-yl)carbonyl]-2,3,3a,4,9,9a-hexahydro-1H-cyclopenta[b]quinolin-9-yl}amino)-4-oxobutanoic acid]",5.1 to 20
5,"CC(C)OC(=O)N1c2ccccc2C(N(C(=O)CCC(=O)O)C2CC2)C2CCCC21 (racemic) [compound 21, 4-(Cyclopropyl{cis,cis-4-[(1-methylethoxy)carbonyl]-2,3,3a,4,9,9a-hexahydro-1H-cyclopenta[b]quinolin-9-yl}amino)-4-oxobutanoic acid]",20.1 to 200
6,"COC(=O)CCC(=O)N(C1CC1)C1c2ccccc2N(C(=O)c2ccc(Cl)cc2)C2CCCC21 (racemic) [14P, methyl 4-[{cis,cis-4-[(4-chlorophenyl)carbonyl]-2,3,3a,4,9,9a-hexahydro-1H-cyclopenta[b]quinolin-9-yl}(cyclopropyl)amino]-4-oxobutanoate]",201 to 7500
7,"CCN(C(=O)CCC(=O)O)C1c2ccccc2N(C(=O)c2ccccc2)C2CCCC12 (racemic) [13D, 4-{ethyl[cis,cis-4-(phenylcarbonyl)-2,3,3a,4,9,9a-hexahydro-1H-cyclopenta[b]quinolin-9-yl]amino}-4-oxobutanoic acid]",5.1 to 20
8,"CN(C(=O)/C=C/C(=O)O)C1c2ccccc2N(C(=O)c2ccccc2)C2CCCC12 (racemic) [17P, (2E)-4-[[cis,cis-4-benzoyl-2,3,3a,4,9,9a-hexahydro-1H-cyclopenta[b]quinolin-9-yl]methylamino]-4-oxo-2-butenoic acid]",201 to 7500
9,"COC(=O)CCC(=O)N(c1ccccc1)C1c2ccccc2N(C(=O)c2cccnc2)C2CCCC21 (racemic) [12B, methyl 4-oxo-4-{phenyl[cis, cis-4-(pyridin-3-ylcarbonyl)-2,3,3a,4,9,9a-hexahydro-1H-cyclopenta[b]quinolin-9-yl]amino}butanoate]",20.1 to 200
10,"O=C(O)CCC(=O)N(C1CC1)C1c2ccccc2N(C(=O)c2cccnc2)C2CCCC21 (racemic) [14i, 4-{cyclopropyl[cis,cis-4-(pyridin-3-ylcarbonyl)-2,3,3a,4,9,9a-hexahydro-1H-cyclopenta[b]quinolin-9-yl]amino}-4-oxobutanoic acid]",20.1 to 200
11,"CC(OC(=O)N1c2ccccc2C(N(C(=O)CCC(=O)O)C2CC2)C2CCCC21)c1ccccc1 (racemic) [21F, 4-(cyclopropyl{cis, cis-4-[(1-phenylethoxy)carbonyl]-2,3,3a,4,9,9a-hexahydro-1H-cyclopenta[b]quinolin-9-yl}amino)-4-oxobutanoic acid]",20.1 to 200
12,"CCN(C(=O)CCC(=O)O)C1c2ccccc2N(C(=O)c2cccnc2)C2CCCC12 (racemic) [13E, 4-{ethyl[cis,cis-4-(pyridin-3-ylcarbonyl)-2,3,3a,4,9,9a-hexahydro-1H-cyclopenta[b]quinolin-9-yl]amino}-4-oxobutanoic acid]",20.1 to 200
13,"O=C(O)CCC(=O)N(C1CC1)C1c2ccccc2N(C(=O)OCc2ccc(Cl)c(Cl)c2)C2CCCC21 (racemic) [21L, 4-{cyclopropyl[cis, cis-4-{[(3,4-dichlorobenzyl)oxy]carbonyl}-2,3,3a,4,9,9a-hexahydro-1H-cyclopenta[b]quinolin-9-yl]amino}-4-oxobutanoic acid]",20.1 to 200
14,"O=C(c1ccccc1)N1c2ccccc2[C@@H](N(C(=O)OCCO)C2CC2)[C@H]2CCC[C@H]21 (racemic) [compound 29, 2-Hydroxyethyl cyclopropyl[cis,cis-4-(phenylcarbonyl)-2,3,3a,4,9,9a-hexahydro-1H-cyclopenta[b]quinolin-9-yl]carbamate]",201 to 7500
15,"O=C(O)CCC(=O)N(C1CC1)C1c2ccc(F)cc2N(C(=O)c2ccc(Oc3ccccc3)cc2)C2CCCC21 (racemic) [16E, 4-{cyclopropyl[cis,cis-6-fluoro-4-[(4-phenoxyphenyl)carbonyl]-2,3,3a,4,9,9a-hexahydro-1H-cyclopenta[b]quinolin-9-yl}amino)-4-oxobutanoic acid]",1 to 5
16,"O=C(O)CCC(=O)N(C1CC1)[C@@H]1c2ccccc2N(C(=O)OCc2ccccc2)[C@@H]2CC[C@@H]21 (racemic) [compound 25, 4-[{cis,cis-3-[(Benzyloxy)carbonyl]-1,2,2a,3,8,8a-hexahydrocyclobuta[b]quinolin-8-yl}(cyclopropyl)amino]-4-oxobutanoic acid]",20.1 to 200
17,"COC(=O)CCC(=O)N(C1CC1)C1c2ccccc2N(C(=O)c2cc3ccccc3n2C)C2CCCC21 (racemic) [14N, methyl 4-(cyclopropyl{cis,cis-4-[(1-methyl-1H-indol-2-yl)carbonyl]-2,3,3a,4,9,9a-hexahydro-1H-cyclopenta[b]quinolin-9-yl}amino)-4-oxobutanoate]",201 to 7500
18,"O=C(O)CCC(=O)N(C1CC1)C1c2ccccc2N(C(=O)Oc2ccc(F)cc2)C2CCCC21 (racemic) [21B, 4-(cyclopropyl{cis, cis-4-[(4-fluorophenoxy)carbonyl]-2,3,3a,4,9,9a-hexahydro-1H-cyclopenta[b]quinolin-9-yl}amino)-4-oxobutanoic acid]",201 to 7500
19,"O=C(O)CCC(=O)N(C1CC1)C1c2ccccc2N(C(=O)OCc2ccccn2)C2CCCC21 (racemic) [21G, 4-(cyclopropyl{cis, cis-4-[(pyridin-2-ylmethoxy)carbonyl]-2,3,3a,4,9,9a-hexahydro-1H-cyclopenta[b]quinolin-9-yl}amino)-4-oxobutanoic acid]",20.1 to 200
20,"O=C(O)CCC(=O)N(C1CC1)C1c2ccccc2N(C(=O)OCc2ccncc2)C2CCCC21 (racemic) [21J, 4-(cyclopropyl{cis, cis-4-[(pyridin-4-ylmethoxy)carbonyl]-2,3,3a,4,9,9a-hexahydro-1H-cyclopenta[b]quinolin-9-yl}amino)-4-oxobutanoic acid]",201 to 7500
21,"4-{cyclopropyl[cis,cis-6-fluoro-4- (phenylcarbonyl)-2,3,3a,4,9,9a- hexahydro-1H- cyclopenta[b]quinolin-9-yl]amino}- 4-oxobutanoic acid [16D]",20.1 to 200
22,"O=C(O)CCC(=O)N(C1CC1)C1c2ccccc2N(c2nnc(-c3ccc(F)cc3)o2)C2CCCC21 (racemic) [36B, racemic 4-(cyclopropyl{cis, cis-4-[5-(4-fluorophenyl)-1,3,4-oxadiazol-2-yl]-2,3,3a,4,9,9a-hexahydro-1H-cyclopenta[b]quinolin-9-yl}amino)-4-oxobutanoic acid]",20.1 to 200
23,"O=C(O)CCC(=O)N(C1CC1)C1c2ccccc2N(S(=O)(=O)c2ccc(OC(F)(F)F)cc2)C2CCCC12 (racemic) [24D, 4-[cyclopropyl[cis,cis-2,3,3a,4,9,9a-hexahydro-4-[[4-(trifluoromethoxy)phenyl]sulfonyl]-1H-cyclopenta[b]quinolin-9-yl]amino]-4-oxobutanoic acid]",20.1 to 200
24,"O=C(O)CCC(=O)N(C1CC1)C1c2ccccc2N(C(=O)OCc2ccc3ccccc3c2)C2CCCC21 (racemic) [21C, 4-(cyclopropyl{cis, cis-4-[(naphthalen-2-ylmethoxy)carbonyl]-2,3,3a,4,9,9a-hexahydro-1H-cyclopenta[b]quinolin-9-yl}amino)-4-oxobutanoic acid]",20.1 to 200
25,"O=C(O)CCC(=O)N(C1CC1)C1c2ccccc2N(C(=O)OCc2ccc(Cl)cc2)C2CCCC21 (racemic) [21A, 4-{[cis, cis-4-{[(4-chlorobenzyl)oxy]carbonyl}-2,3,3a,4,9,9a-hexahydro-1H-cyclopenta[b]quinolin-9-yl](cyclopropyl)amino}-4-oxobutanoic acid]",20.1 to 200
26,"O=C(O)CCC(=O)N(C1CC1)[C@@H]1c2ccc(F)cc2N(C(=O)OCc2ccccc2)[C@@H]2CCC[C@@H]21 (racemic) [compound 16, 4-[{cis,cis-4-[(Benzyloxy)carbonyl]-6-fluoro-2,3,3a,4,9,9a-hexahydro-1H-cyclopenta[b]quinolin-9-yl}(cyclopropyl)amino]-4-oxobutanoic acid]",1 to 5
27,"O=C(O)CCC(=O)N(C1CC1)[C@@H]1c2ccccc2N(c2nnc(Cc3ccccc3)o2)[C@@H]2CCC[C@@H]21 (racemic) [compound 36, 4-{[cis-4-(5-Benzyl-1,3,4-oxadiazol-2-yl)-2,3,3a,4,9,9a-hexahydro-1H-cyclopenta[b]quinolin-9-yl](cyclopropyl)amino}-4-oxobutanoic acid]",20.1 to 200

# Reference: patent US8592383B2, “Cycloalkyl-fused tetrahydroquinolines as CRTH2 receptor modulators” (Merck Sharp & Dohme Corp., priority 2011, dated 2013)
